Laboratory results as given in patent US12606554B2, “Compounds and pharmaceutical compositions thereof for the treatment of diseases” (ONCO3R Therapeutics BV, priority 2019, dated 2026).

Tests used:
SIK1 = molecular target: T1, SIK1 (Homo sapiens, UniProt P57059); assay: ADP-Glo kinase assay, SIK1; type: biochemical; conditions: AMARA peptide 45 μM, 5 μM ATP, 120 min, read-out: SIM1 IC50
T1 construct: purchased Carna Biosciences 02-131
From the text: (§1) The ADP-Glo™ kinase assay is a luminescent technology assay which measures the ADP formed from a kinase reaction. In this specific study, the kinase reactions consisted of the phosphorylation of the AMARA peptide substrate (SignalChem, Cat #A11-58) by SIK1 (Carma Biosciences, Cat #02-131), SIK2 (ThermoFisher Scientific, Cat #PV4792) or SIK3 (SignalChem, Cat #S12-11G-100). In a second step the kinase reactions are terminated and all the remaining ATP is depleted. In a final step the ADP is converted into ATP and this newly synthesized ATP is measured by using a luciferase/luciferin reaction. The generated light is measured using an Envision plate reader, wherein the luminescent signal obtained positively correlates with the kinase activity.
(§2) The test compounds are prepared as a serial dilution of 10 point dose responses with ⅕ dilution steps in 100% DMSO starting from 2 mM highest concentration, diluted 1/20 in water and […] is transferred to the assay plates (PerkinElmer Inc., Cat #6007290).
(§3) 1% DMSO and 10 μM staurosporine final concentrations are used as negative and positive controls.
(§4) 2 μL enzyme-substrate mixture is added to the assay plates.
(§5) The reaction is started by adding 2 μL diluted ATP on the assay plates. Plates are centrifuged for a few seconds at 1000 rpm and gently shaken for 2 min followed by an incubation at RT for 120 min.
(§6) The reactions are stopped and the unconsumed ATP is depleted by adding 5 μL ADP-Glo Reagent (Promega, Cat #V9121B) to the reaction. The plates are centrifuged for a few seconds at 1000 rpm and incubated at RT for […] (ATP depletion).
(§7) The ADP is converted to ATP and luciferase and luciferin is introduced to detect ATP by adding 10 μL Kinase Detection Reagent (Promega, Cat #V913B+V914r) to the reaction. The plates are centrifuged for a few seconds at 1000 rpm and incubated at RT for 30 min (ADP detection).
(§8) Luminescence is measured on an Envision plate reader (PerkinElmer Inc.).
(§9) Raw data are generated following the read-out performed on the TopCount, plotted to generate dose response curves to calculate percentage inhibition (PIN) and average IC50 for each SIK homologue which are reported in the table below.

SIK2 = molecular target: T2, SIK2 (Homo sapiens, UniProt Q9H0K1); assay: ADP-Glo kinase assay, SIK2; type: biochemical; conditions: AMARA peptide 45 μM, 5 μM ATP, 120 min
T2 construct: purchased ThermoFisher Scientific PV4792
From the text: as §1, §2, §3, §4, §5, §6, §7, §8, §9

[1] = tested on: LPS triggered IL-10 secretion in monocytes; assay: Monocytes assay: LPS-triggered IL-10 (ELISA); type: cell-based, human; conditions: LPS 200 ng/mL, supernatant after 4 h, maximal fold change vs LPS only
Procedure: SIK inhibition inhibits TNFα and increases IL-10 release in LPS triggered monocyte-derived macrophages (MdM) and dendritic cells (MdDCs) (Clark et al. 2012; Sundberg et al. 2014; Ozanne et al. 2015). This assay evaluates illustrative compounds of the invention for their inhibition of LPS-induced TNFα and LPS triggered IL-10 secretion in monocytes.
PBMCs are isolated from human blood samples (buffycoats). The buffy coat is aseptically transferred into a 50 mL Falcon tube, and diluted ½ in PBS. Falcon tubes are filled with 20 mL Lymphoprep™, on top of which 25 mL of the buffy coat is carefully added, tubes are centrifuged for 35 min at 400 g in temperature controlled centrifuge, without brake, at 25° C. PBMCs are aspirated from the white interface layer between sample and Lymphoprep™. PBMCs are washed five times in PBS. Cells are resuspended in RPMI 1640 complete medium supplemented with 10% FBS, 1% P/S, and cell density is determined using a hematologic analyzer (Sysmex XS-500i). […]
The columns are removed from the magnets, and 5 mL of Miltenyi buffer are added to the column to flush out the CD14+ fraction by pushing the plunger into the column. […] The obtained cell pellet is resuspended in 10 mL RPMI w/o FBS, and cell density is determined using a hematologic analyser (Sysmex XS-500i). […]

SIK3 = molecular target: T3, SIK3 (Homo sapiens, UniProt Q9Y2K2); assay: ADP-Glo kinase assay, SIK3; type: biochemical; conditions: AMARA peptide 45 μM, 5 μM ATP, 120 min
T3 construct: purchased SignalChem S12-11G-100
From the text: as §1, §2, §3, §4, §5, §6, §7, §8, §9

T3 sequence (Q9Y2K2 whole entry): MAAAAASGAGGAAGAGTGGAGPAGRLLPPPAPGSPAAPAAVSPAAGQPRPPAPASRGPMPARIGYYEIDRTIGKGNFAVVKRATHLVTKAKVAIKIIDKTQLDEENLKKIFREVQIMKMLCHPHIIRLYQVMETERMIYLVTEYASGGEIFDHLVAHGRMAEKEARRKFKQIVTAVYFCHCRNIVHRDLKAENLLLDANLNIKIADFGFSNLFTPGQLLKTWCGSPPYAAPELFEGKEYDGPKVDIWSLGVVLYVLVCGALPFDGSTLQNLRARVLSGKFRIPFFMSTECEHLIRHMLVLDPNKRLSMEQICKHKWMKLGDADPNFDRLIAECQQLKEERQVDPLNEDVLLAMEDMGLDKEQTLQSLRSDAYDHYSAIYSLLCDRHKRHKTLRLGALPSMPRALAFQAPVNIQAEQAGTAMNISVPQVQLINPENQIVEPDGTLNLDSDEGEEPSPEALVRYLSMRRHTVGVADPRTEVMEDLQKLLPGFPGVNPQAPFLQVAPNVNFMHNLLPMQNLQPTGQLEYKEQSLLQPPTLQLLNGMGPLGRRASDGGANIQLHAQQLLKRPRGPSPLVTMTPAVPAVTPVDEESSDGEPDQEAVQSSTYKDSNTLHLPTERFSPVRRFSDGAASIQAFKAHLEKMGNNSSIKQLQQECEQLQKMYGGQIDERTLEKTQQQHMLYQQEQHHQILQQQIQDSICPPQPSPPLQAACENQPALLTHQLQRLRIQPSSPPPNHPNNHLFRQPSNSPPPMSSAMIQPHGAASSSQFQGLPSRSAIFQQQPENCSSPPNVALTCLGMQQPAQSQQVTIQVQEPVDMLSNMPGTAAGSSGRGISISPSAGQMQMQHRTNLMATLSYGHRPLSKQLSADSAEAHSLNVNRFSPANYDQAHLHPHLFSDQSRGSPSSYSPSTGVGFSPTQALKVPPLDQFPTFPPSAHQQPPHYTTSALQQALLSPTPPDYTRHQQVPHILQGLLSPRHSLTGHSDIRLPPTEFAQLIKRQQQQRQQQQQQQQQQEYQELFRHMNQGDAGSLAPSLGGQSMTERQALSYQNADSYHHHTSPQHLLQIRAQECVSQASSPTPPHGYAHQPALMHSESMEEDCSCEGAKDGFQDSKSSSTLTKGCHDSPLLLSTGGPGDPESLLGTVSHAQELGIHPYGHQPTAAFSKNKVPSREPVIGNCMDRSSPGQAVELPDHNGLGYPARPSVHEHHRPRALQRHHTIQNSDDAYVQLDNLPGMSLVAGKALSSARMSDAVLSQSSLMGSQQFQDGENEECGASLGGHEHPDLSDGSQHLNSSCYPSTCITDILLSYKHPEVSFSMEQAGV
T2 sequence (Q9H0K1 whole entry): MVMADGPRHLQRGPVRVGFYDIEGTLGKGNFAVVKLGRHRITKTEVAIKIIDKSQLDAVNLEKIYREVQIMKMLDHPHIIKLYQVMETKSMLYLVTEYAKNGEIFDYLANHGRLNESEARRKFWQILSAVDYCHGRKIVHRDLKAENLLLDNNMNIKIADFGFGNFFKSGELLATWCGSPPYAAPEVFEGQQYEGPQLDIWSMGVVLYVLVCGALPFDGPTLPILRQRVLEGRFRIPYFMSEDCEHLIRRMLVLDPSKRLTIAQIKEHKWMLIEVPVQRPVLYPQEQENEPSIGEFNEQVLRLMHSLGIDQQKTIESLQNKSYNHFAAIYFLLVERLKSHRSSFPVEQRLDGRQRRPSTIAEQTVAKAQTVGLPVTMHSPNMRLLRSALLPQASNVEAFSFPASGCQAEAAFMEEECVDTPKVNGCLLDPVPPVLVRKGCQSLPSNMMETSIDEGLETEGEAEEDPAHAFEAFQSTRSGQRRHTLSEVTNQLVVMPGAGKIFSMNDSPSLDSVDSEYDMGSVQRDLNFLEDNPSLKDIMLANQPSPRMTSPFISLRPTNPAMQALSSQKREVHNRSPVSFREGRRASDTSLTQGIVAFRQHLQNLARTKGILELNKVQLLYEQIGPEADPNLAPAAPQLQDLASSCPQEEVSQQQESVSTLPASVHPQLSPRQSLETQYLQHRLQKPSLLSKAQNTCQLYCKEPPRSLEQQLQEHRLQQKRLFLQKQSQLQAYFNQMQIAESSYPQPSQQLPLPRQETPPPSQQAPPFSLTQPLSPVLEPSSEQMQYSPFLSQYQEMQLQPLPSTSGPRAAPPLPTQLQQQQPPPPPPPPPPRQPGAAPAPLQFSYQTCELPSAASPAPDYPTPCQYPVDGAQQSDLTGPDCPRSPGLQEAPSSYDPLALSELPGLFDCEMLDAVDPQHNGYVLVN
T1 sequence (P57059 whole entry): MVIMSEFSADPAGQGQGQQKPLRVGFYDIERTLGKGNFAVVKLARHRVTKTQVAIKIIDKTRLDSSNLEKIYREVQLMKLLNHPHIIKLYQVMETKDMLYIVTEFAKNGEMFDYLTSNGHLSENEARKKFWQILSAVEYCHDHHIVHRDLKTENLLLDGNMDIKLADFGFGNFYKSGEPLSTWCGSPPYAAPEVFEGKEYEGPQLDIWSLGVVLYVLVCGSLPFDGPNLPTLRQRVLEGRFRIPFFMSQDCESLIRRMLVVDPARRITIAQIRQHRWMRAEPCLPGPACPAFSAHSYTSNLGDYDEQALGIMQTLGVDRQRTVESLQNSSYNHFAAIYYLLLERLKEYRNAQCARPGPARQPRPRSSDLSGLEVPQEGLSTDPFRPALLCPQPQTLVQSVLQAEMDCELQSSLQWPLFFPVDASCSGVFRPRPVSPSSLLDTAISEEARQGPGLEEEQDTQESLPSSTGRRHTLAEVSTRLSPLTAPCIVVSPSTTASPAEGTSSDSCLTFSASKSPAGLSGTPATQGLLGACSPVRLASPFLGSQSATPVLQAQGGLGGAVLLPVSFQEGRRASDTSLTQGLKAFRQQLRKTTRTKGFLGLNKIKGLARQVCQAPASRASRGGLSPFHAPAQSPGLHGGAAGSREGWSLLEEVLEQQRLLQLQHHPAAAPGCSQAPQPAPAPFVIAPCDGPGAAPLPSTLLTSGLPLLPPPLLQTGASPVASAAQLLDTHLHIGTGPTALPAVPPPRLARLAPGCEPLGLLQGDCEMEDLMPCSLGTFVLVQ

IC50 (SIK1)	IC50 (SIK2)	IC50 (SIK3)	SMILES	IL-10 FCmax median [1]
100 to 500 nM	0.01 to 10 nM	0.01 to 10 nM	COc1cc(-c2cnn3cc(OCCN4CCOCC4)ccc23)cc2c1C(=O)N(CC(F)(F)F)CC2 [Cpd 1, 8-methoxy-6-[6-(2-morpholinoethoxy)pyrazolo[1,5-a]pyridin-3-yl]-2-(2,2,2-trifluoroethyl)-3,4-dihydroisoquinolin-1-one]	+++ (>4.5)
> 500 nM	100 to 500 nM	0.01 to 10 nM	COc1cc(-c2cnn3cc(OC(C)(C)CO)ccc23)cc(OC(F)F)c1C(=O)N[C@@H]1C[C@@H]1F [Cpd 2, 2-(difluoromethoxy)-N-[(1R,2S)-2-fluorocyclopropyl]-4-[6-(2-hydroxy-1,1-dimethyl-ethoxy)pyrazolo[1,5-a]pyridin-3-yl]-6-methoxy-benzamide]	+ (≤1.5)
> 500 nM	100 to 500 nM	10 to 100 nM	COc1cc(-c2cnn3cc(OC(C)(C)CN4CCOCC4)ccc23)cc(OC(F)F)c1C(=O)N[C@@H]1C[C@@H]1F [Cpd 3, 2-(difluoromethoxy)-4-[6-(1,1-dimethyl-2-morpholino-ethoxy)pyrazolo[1,5-a]pyridin-3-yl]-N-[(1R,2S)-2-fluorocyclopropyl]-6-methoxy-benzamide]	
